Data: paper PMC9025560, “A Comparison of Evans Blue and 4-(p-Iodophenyl)butyryl Albumin Binding Moieties on an Integrin αvβ6 Binding Peptide” (Pharmaceutics, 2022)
Where two headings read alike, the source gives them in different places.

Columns and labels:
[1] = test system: human serum protein; assay: Human serum protein binding by ultrafiltration; format: in vitro ADME
Experimental: Serum protein binding of [^64Cu]1 and [^64Cu]2 was assessed following the previously reported method. Peptides [^64Cu]1 and [^64Cu]2 were evaluated by ultrafiltration using Centrifree Ultrafiltration devices (EMD) according to the manufacturer’s recommendations. Experiments were carried out in triplicate. The Centrifree Ultrafiltration devices were pretreated with PBS containing Tween 20 (5% v/v), followed by triplicate rinses with PBS. An aliquot of each peptide [^64Cu]1 or [^64Cu]2 in PBS (≤25 μL, 20–60 KBq) was thoroughly mixed with 0.5 mL of serum at 37 °C in a microfuge tube. The mixture was incubated at 37 °C for 5 min, and an aliquot (50 μL) was transferred to a tube for γ-counting. The remaining sample was transferred to a Centrifree Ultrafiltration device and centrifuged for 40 min at 1500 (RCF) at ambient temperature (20–24 °C). An aliquot (50 μL) of the filtrate was transferred to a tube for γ-counting. For each radiolabeled peptide, a blank was run using 0.5 mL PBS/Tween 20 (5% v/v) instead of serum (n = 3) to determine non-specific binding. Following γ-counting, the protein-bound radioactivity was calculated by subtracting the counts measured in the filtrate aliquot (i.e., not protein-bound) from the counts in the corresponding serum aliquot. The data are expressed as mean ± standard deviation of fraction of radioactivity bound to protein after subtraction of non-specific binding determined in the blank.

[2] = Biodistribution in mice bearing BxPC-3 xenograft tumors; format: in vivo; conditions: female, athymic nu/nu-nude, mouse, in vivo, iv, total radioactivity, i.v.; for tissue uptake at 4 h: 4 h p.i.; for tissue uptake at 24 h: 24 h p.i.
Experimental: All animal procedures conformed to the Animal Welfare Act and were approved by the University of California, Davis Institutional Animal Care and Use Committee. Female athymic nu/nu-nude mice (6–8 weeks old) were purchased from Charles River Laboratories (Wilmington, MA, USA) and provided food and water on an ad libitum basis. BxPC-3 xenografts were implanted according to previous methods. Briefly, BxPC-3 cells were evaluated by flow cytometry to confirm integrin αvβ6 expression levels, injected subcutaneously into the left flank [5 million in 100 μL of a 1:1 mixture of serum-free RPMI and GFR Matrigel (Corning, New York, NY, USA)], and allowed to grow for approximately 3 weeks until tumors reached a diameter of 0.5–1 cm.
For biodistribution studies the [^64Cu]1–4 (3.7–5.55 MBq) in PBS (100 μL, pH 7.2) was injected intravenously (i.v.) via catheter into the tail vein. Following a conscious uptake period, the mice were anesthetized (5% isoflurane), euthanized, and dissected ([^64Cu]1 and [^64Cu]2, n = 3/radiolabeled peptide/time point; 4, 24, and 48 h p.i.; the 72 h time point was obtained from the imaging animals after the 72 h PET/CT scans; compounds [^64Cu]3 and [^64Cu]4, n = 2/radiolabeled compound at 4 h p.i.). Tissues were rapidly collected, weighed, and radioactivity measured with a γ-counter. Decay-corrected radioactivity concentrations are expressed as the percentage of injected dose per gram of tissue (% ID/g). Data are reported as mean ± standard deviation (SD) (Figure S20, S21 and S25).

[3] = read-out: Fecal Matter radioactivity
[4] = read-out: Lg. Intestines uptake
[5] = read-out: Sm. Intestines uptake

SMILES: Cc1cc(-c2ccc(NC(=O)CCC(=O)NCCCC[C@H](NC(=O)CN3CCN(CC(=O)O)CCN(CC(=O)O)CCN(CC(=O)O)CC3)C(=O)NCCOCCOCCOCCOCCOCCOCCOCCOCCOCCOCCOCCOCCOCCOCCOCCOCCOCCOCCOCCOCCOCCOCCOCCOCCOCCOCCOCCOCCC(=O)N[C@@H](CC(N)=O)C(=O)N[C@@H](C)C(=O)N[C@H](C(=O)N3CCC[C@H]3C(=O)N[C@@H](CC(N)=O)C(=O)N[C@@H](CC(C)C)C(=O)N[C@@H](CCCNC(=N)N)C(=O)NCC(=O)N[C@@H](CC(=O)O)C(=O)N[C@@H](CC(C)C)C(=O)N[C@@H](CCC(N)=O)C(=O)N[C@H](C(=O)N[C@@H](CC(C)C)C(=O)N[C@@H](C)C(=O)N[C@@H](CCC(N)=O)C(=O)N[C@@H](CCCNC(=N)N)C(=O)N[C@H](C(=O)N[C@@H](C)C(=O)N[C@@H](CCCNC(=N)N)C(=O)N[C@H](C(=O)NCCOCCOCCOCCOCCOCCOCCOCCOCCOCCOCCOCCOCCOCCOCCOCCOCCOCCOCCOCCOCCOCCOCCOCCOCCOCCOCCOCCOCCC(N)=O)[C@@H](C)O)C(C)C)C(C)C)C(C)C)c(C)c2)ccc1N=Nc1ccc2c(S(=O)(=O)O)cc(S(=O)(=O)O)c(N)c2c1O [[^64Cu]1, [^64Cu]Cu DOTA-EB-αvβ6-BP, metal not drawn]
- Binding to human serum protein ([1]; 37 °C, ultrafiltration): 53.4 ± 0.9%
- Serum albumin binding ([1]; abstract, serum species not stated): 53–63%
- tissue uptake at 4 h ([2]; read-out: Blood uptake): 1.3 ± 0.31 %ID/g
- tissue uptake at 4 h ([2]; read-out: Bone uptake): 0.44 ± 0.04 %ID/g
- tissue uptake at 4 h ([2]; read-out: Brain uptake): 0.09 ± 0.02 %ID/g
- tissue uptake at 4 h ([2]; read-out: BxPC-3 Tumor uptake): 5.29 ± 0.59 %ID/g
- tissue uptake at 4 h [2, 3]: 3.03 ± 0.67 %ID/g
- tissue uptake at 4 h ([2]; read-out: Gall Bladder uptake): 2.12 ± 0.51 %ID/g
- tissue uptake at 4 h ([2]; read-out: Heart uptake): 0.99 ± 0.08 %ID/g
- tissue uptake at 4 h ([2]; read-out: Kidneys uptake): 75.5 ± 7.26 %ID/g
- tissue uptake at 4 h [2, 4]: 4.13 ± 0.1 %ID/g
- tissue uptake at 4 h ([2]; read-out: Liver uptake): 1.64 ± 0.2 %ID/g
- tissue uptake at 4 h ([2]; read-out: Lung uptake): 2.71 ± 0.57 %ID/g
- tissue uptake at 4 h ([2]; read-out: Muscle uptake): 0.67 ± 0.1 %ID/g
- tissue uptake at 4 h ([2]; read-out: Pancreas uptake): 0.46 ± 0.06 %ID/g
- tissue uptake at 4 h ([2]; read-out: Skin uptake): 1.56 ± 0.34 %ID/g
- tissue uptake at 4 h [2, 5]: 4.72 ± 0.55 %ID/g
- tissue uptake at 4 h ([2]; read-out: Spleen uptake): 0.32 ± 0.28 %ID/g
- tissue uptake at 4 h ([2]; read-out: Stomach uptake): 6.41 ± 0.64 %ID/g
- tissue uptake at 4 h ([2]; read-out: Urine radioactivity): 19.6 ± 10.5 %ID/g
- tissue uptake at 24 h ([2]; read-out: Blood uptake): 0.33 ± 0.01 %ID/g
- tissue uptake at 24 h ([2]; read-out: Bone uptake): 0.34 ± 0.13 %ID/g
- tissue uptake at 24 h ([2]; read-out: Brain uptake): 0.09 ± 0.01 %ID/g
- tissue uptake at 24 h ([2]; read-out: BxPC-3 Tumor uptake): 5.03 ± 0.97 %ID/g
- tissue uptake at 24 h [2, 3]: 2.85 ± 0.55 %ID/g
- tissue uptake at 24 h ([2]; read-out: Gall Bladder uptake): 1.85 ± 0.27 %ID/g
- tissue uptake at 24 h ([2]; read-out: Heart uptake): 0.92 ± 0.05 %ID/g
- tissue uptake at 24 h ([2]; read-out: Kidneys uptake): 40.5 ± 7.7 %ID/g
- tissue uptake at 24 h [2, 4]: 3.46 ± 0.45 %ID/g
- tissue uptake at 24 h ([2]; read-out: Liver uptake): 2.09 ± 0.1 %ID/g
- tissue uptake at 24 h ([2]; read-out: Lung uptake): 2.79 ± 1.62 %ID/g
- tissue uptake at 24 h ([2]; read-out: Muscle uptake): 0.5 ± 0.2 %ID/g
- tissue uptake at 24 h ([2]; read-out: Pancreas uptake): 0.48 ± 0.03 %ID/g
- tissue uptake at 24 h ([2]; read-out: Skin uptake): 1.08 ± 0.3 %ID/g
- tissue uptake at 24 h [2, 5]: 2.78 ± 0.31 %ID/g
- tissue uptake at 24 h ([2]; read-out: Spleen uptake): 0.56 ± 0.16 %ID/g
- tissue uptake at 24 h ([2]; read-out: Stomach uptake): 4.18 ± 0.54 %ID/g
- tissue uptake at 24 h ([2]; read-out: Urine radioactivity): 5.01 ± 0.29 %ID/g
